The results in this text go back to patent publication US9644037B2, “Antibodies that specifically bind ataxia telangiectasia-mutated and RAD3-related kinase phosphorylated at position 1989 and their use” (THE UNITED STATES OF AMERICA, AS REPRESENTED BY THE …, priority 2013, dated 2017).

The test system of one assay is pT1989-ATR. Nature of the assay: Immunoblot of ATR-Chk1 response to Top1 inhibitors with or without VE-821: ATR. Format: cell-based. The following applies: for phosphorylation of ATR (threonine 1989): Top1 inhibitor treatment, 0, 4, 8, 18 h after removal. As for the experimental part: (§1) For these studies, auto-phosphorylation of ATR on threonine 1989, a DNA damage activation site (Nam et al., J Biol Chem 2011; 286(33):28707-14; Liu et al., Molecular cell 2011; 43(2):192-202), was determined, as well as Chk1 phosphorylation on serine 345, which is mediated by ATR. Histone H2AX phosphorylation was also determined on serine 139 (γH2AX), a validated pharmacodynamic biomarker for DNA damage and apoptosis (Bonner et al., Nat Rev Cancer 2008; 8(12):957-67; Kinders et al., Clin Cancer Res 2010; 16(22):5447-57; Solier et al., Mol Cell Biol 2009; 29(1):68-82).
(§2) Briefly, cell lysates were electrophoresed on 4-20% Tris-glycine or 3-8% Tris-acetate polyacrylamide gels, and transferred onto nitrocellulose membranes. Antibodies against GAPDH, ATR and pS345-Chk1 were obtained from Cell Signaling Technologies, γH2AX and pT68-Chk2 from Abcam and Top1 from BD Biosciences. The antibody against pT1989-ATR is disclosed above. After incubation with secondary antibody, signals were detected by enhanced chemiluminescence (Pierce).

The test system of a further assay is γH2AX. The assay is described as follows: Immunoblot of ATR-Chk1 response to Top1 inhibitors with or without VE-821: γH2AX. Format: cell-based. The following applies: for phosphorylation of H2AX (γH2AX): Top1 inhibitor treatment. As for the experimental part: as §1, §2
A further assay has as its system phospho-ATR (pT1989). Nature of the assay: Western blot of phospho-ATR (pT1989) in drug-treated cells. Format: cell-based, human. As for the experimental part: Cell growth was monitored 2-3 weeks after fusion. Hybridoma supernatants were screened by standard colorimetric ELISA against BSA-conjugated peptides as described in section C. The screening process consisted of a Primary screen on 40 plates (using bleed 2 of E5571 at 1:100 dilution as a Positive control) clones (44) with O.D. greater than 0.5 were considered putatively positive and were further expanded to 24-well plate. Confirmatory screen was performed and 6 clones were confirmed positive against phospho-specific peptides (Table 4). Additional screening was performed by ELISA using the same assay as for bleed screening (FIG. 5). Western blotting was done on selected clones #7, 27 and 35 for subcloning (FIG. 6). DLD-1 cells and DLD-1 Seckel cells with and without gemcitabine treatment (100 nM for 4 h) were lysed with cell extraction buffer (Invitrogen, catalog # FNN0011). Lysates were run on NUPAGE® NOVEX® 3-8% gels (Invitrogen, catalog # EA0378BOX) and transferred to nitrocellulose membranes (Invitrogen catalog # IB3010-01) using the IBLOT® apparatus from Invitrogen. Blots were blocked with Licor ODYSSEY® blocking buffer (LiCor, catalog #927-40010) and incubated overnight with hybridoma supernatants (1:30). Blots were then washed with PBS-T (0.05% TWEEN®) and incubated with Licor goat anti-rabbit IR-680 antibody for 1 h at room temperature. Blots were then washed with phosphate-buffered saline with 0.05% TWEEN®-20 (PBS-T) and scanned at 700 nm on Licor ODYSSEY® scanner.
Details for lysate preparation and Western blotting are given in Example I, section E. The antibody detected a single band at about 250 kDa consistent with the predicted molecular weight (MW) for ATR. The antibody also detected an increase in phospho-ATR (pT1989) upon gemcitabine (SIGMA) treatment which is known to increase ATR activity (Mol. Pharmacol. (2005), 68, 1636-1644). Finally, an isogenic pair of DLD-1 cells was used.
Cells were treated for 4 hours with either vehicle (DMSO, 0.01%), 150 nM Gemcitabine (Sigma), 1 uM ATR inhibitor VE-821 or combination of drugs. The antibody detected a single band at about 250 kDa consistent with the predicted MW for ATR. The antibody also detected an increase in phospho-ATR (pT1989) upon Gemcitabine treatment, which is known to increase ATR activity (Molecular Pharmacology (2005) 68, 1636-1644). […] Lysates were prepared in buffer as follows: 0.94 ml RIPA buffer, 40 μl Protease Inhibitor Cocktail (25× stock, Roche Cat#11697498001), 10 μl Phosphatase Inhibitor (Roche Cat#04906845001) and 10 μl PMSF (Sigma cat#93482). Lysates were sonicated prior to use. Lysates were run on 3-8% Tris-Acetate gels from NOVEX® (Invitrogen, Cat# EA0378BOX) and transferred to nitrocellulose membranes using the IBLOT® transfer apparatus, program setting P3, 20V, 13 min. Blots were blocked with Licor ODYSSEY® blocking buffer and incubated overnight with Clone 7 hybridoma supernatant (1:30). B lots were then washed with PBS-T (0.05% Tween) and incubated with Licor goat anti-rabbit IR-680 antibody for 1 h at room temperature. […]
For these studies, DLD-1 parental and DLD-1 Seckel (Horizon) cells were treated with gemcitabine for 4 hours. Clone 7A7 detected ATR in the parental DLD-1 cell lysate by Western blotting and detects an increase in pT1989-ATR with gemcitabine treatment as expected. In contrast, the level of pT-1989 detected by clone 7A7 was much lower in the DLD-1 Seckel cells which have suppressed ATR expression.

A further assay concerns pT68-Chk2. The assay is described as follows: Immunoblot of ATR-Chk1 response to Top1 inhibitors with or without VE-821: Chk2. The following applies: for phosphorylation of Chk2 (threonine 68): Top1 inhibitor treatment. Format: cell-based. As for the experimental part:
Briefly, cell lysates were electrophoresed on 4-20% Tris-glycine or 3-8% Tris-acetate polyacrylamide gels, and transferred onto nitrocellulose membranes. Antibodies against GAPDH, ATR and […]-Chk1 were obtained from Cell Signaling Technologies, γH2AX and […]-Chk2 from Abcam and Top1 from BD Biosciences. The antibody against […]-ATR is disclosed above. After incubation with secondary antibody, signals were detected by enhanced chemiluminescence (Pierce).

The next assay has as its system pS345-Chk1. The assay is described as follows: Immunoblot of ATR-Chk1 response to Top1 inhibitors with or without VE-821: Chk1. The following applies: for phosphorylation of Chk1 (serine 345): Top1 inhibitor treatment. Format: cell-based. As for the experimental part:
as §1, §2

Assay [1] concerns ATR-pT1989 foci in A2780 xenografts. Nature of the assay: pATR T1989 immunofluorescence assay in A2780 xenografts. Format: in vivo, mice. The following applies: 1.2 or 6.0 mg/kg intraperitoneally; 4, 7 and 24 hours; dose and time dependent. Here is the method:
In vivo studies were performed. A2780 xenografts were evaluated in mice treated with 1.2 mg/kg cisplatin or 6.0 mg/kg cisplatin for 4, 7 and 24 hours. […] The following methods were used in these studies:
Xenograft Samples and In Vivo Quantitation: Athymic nu/nu mice were implanted with A2780 cells as previously described (Kinders et al., Clin Cancer Res 2010:16(22):5447-57). Xenograft quadrants were collected and flash frozen from mice following exposure to vehicle (0.9% saline) or various doses (1.2, 6.0 mg/kg) of cisplatin administered intraperitoneally. The samples were fixed in neutral-buffered formalin and paraffin-embedded as previously described (Kinders et al., Clin Cancer Res 2010; 16(22):5447-57). Animal care was provided in accordance with the procedures outlined in the “Guide for Care and Use of Laboratory Animals” (National Research Council; 1996; National Academy Press; Washington, D.C.), and all studies were conducted under an approved Animal Care and Use Committee protocol. […]
Quantitative Marker Analysis: The DEFINIENS TISSUE STUDIO® (Version 2.0.3; Build 2057) software program was used for analysis of foci count/nucleus. For the analysis, fields were scored first for the number of nuclei and then individual counts of the number of foci count/per nucleus were performed. […]

In assay [2] the test system is ATR phosphorylation at pT1989. Nature of the assay: ATR-pT1989 IFA on FFPE pellets of drug-treated cells. Format: cell-based, human. As for the experimental part:
Formalin fixed paraffin embedded (FFPE) pellets were generated using cells expressing WT ATR (HT29, DLD-1 Parental) or mutated ATR (DLD-1 Seckel (Horizon)), with and without gemcitabine (SIGMA) treatment to induce ATR phosphorylation at pT1989 (Mol. Pharmacol. 2005, 68, 1636-1644). Cells were harvested by trypsinization, transferred into a sterile 50 ml conical centrifuge tubes with media containing 10% serum and pelleted at 1000×g for 5 minutes. Medium was replaced with fresh serum containing medium and centrifuged again at 1000×g, 5 minutes. All but 1 ml (approximately) of medium was removed and the pellet was re-suspended by flicking the tube. Suspended cells were transferred using a 2 ml pipette into a clean 1.5 ml conical Eppendorf tube. Cells were pelleted for 30 seconds at 8,000 rpm in an Eppendorf micro centrifuge. The supernatant was discarded leaving approximately 100-200 ul behind. The cell pellet was loosened by gently flicking the tube and Thrombin stock (8 ul of 1 unit/ul water, Sigma #T-7009) was added. The cells were mixed briefly by gently flicking the tube then held on ice for 2-5 minutes. Fibrinogen stock (5 ul of at 10 mg/ml water, Sigma #F-3879) was added, and the tube was incubated for 2-5 minutes at room temperature. Clotted cells were pelleted by a brief centrifuge for 20 seconds at 10K. […]

The mark [3] stands for this setting: VE-821 with Top1 inhibitor (CPT or LMP-400).

As for `CS(=O)(=O)c1ccc(-c2cnc(N)c(C(=O)Nc3ccccc3)n2)cc1` [VE-821], in the assay with pT1989-ATR (setting [3]), the “phosphorylation of ATR” value is “inhibited the phosphorylation”. The “γH2AX induction over time” value with γH2AX (setting [3]) is “strongly induced”. Besides, in the assay on phospho-ATR (pT1989) (1 uM VE-821 combined with 150 nM gemcitabine, 4 hours, HT-29 and LoVo), the “phospho-ATR (pT1989) level by Western blot compared to gemcitabine alone” value was “reduced”. In the assay on phospho-ATR (pT1989) (1 uM alone, 4 hours, HT-29 and LoVo), the “phospho-ATR (pT1989) level by Western blot compared to vehicle” value is listed as “did not affect”. The Chk2 phosphorylation result with pT68-Chk2 (setting [3]) is on record as “without reducing Chk2 phosphorylation”. In the assay on pS345-Chk1 (setting [3]), the “phosphorylation of Chk1” value is “inhibited the phosphorylation”.

With `COc1cc2c3c(n(CCCN4CCOCC4)c(=O)c2cc1OC)-c1cc2c(cc1C3=O)OCO2` [LMP-400], in the assay with pT1989-ATR, the “effects on checkpoint phosphorylation relative to CPT” value is recorded as “more pronounced effects than CPT”; the “phosphorylation of ATR (threonine 1989)” value was “delayed and best detectable after drug removal”. Moreover, the “phosphorylation of H2AX (γH2AX)” value in the assay on γH2AX was “quickly induced the rapid phosphorylation”. Besides, the “phosphorylation of Chk2 (threonine 68)” value with pT68-Chk2 was “quickly induced the rapid phosphorylation”. In addition, the “phosphorylation of Chk1 (serine 345)” value with pS345-Chk1 is listed as “quickly induced the rapid phosphorylation”.

For the molecule `N.N.[Cl][Pt][Cl]` [cisplatin], in assay [1], the “ATR foci in treated samples compared to vehicle” value was “increase in ATR foci”.

Regarding `CC[C@@]1(O)C(=O)OCc2c1cc1n(c2=O)Cc2cc3ccccc3nc2-1` [CPT], the “phosphorylation of ATR (threonine 1989)” value in the assay on pT1989-ATR was “delayed and best detectable after drug removal”. Further, the “phosphorylation of H2AX (γH2AX)” value with γH2AX was “quickly induced the rapid phosphorylation”. Further, in the assay with pT68-Chk2, the “phosphorylation of Chk2 (threonine 68)” value is “quickly induced the rapid phosphorylation”. Also, the “phosphorylation of Chk1 (serine 345)” value with pS345-Chk1 is recorded as “quickly induced the rapid phosphorylation”.

Consider `Nc1ccn([C@@H]2O[C@H](CO)[C@@H](O)C2(F)F)c(=O)n1` [gemcitabine], for which the “phospho-ATR (pT1989) level by Western blot” value is “increase” in the assay with phospho-ATR (pT1989) (150 nM, 4 hours, HT-29 and LoVo); “increase” with phospho-ATR (pT1989) (gemcitabine treatment, HT-29, LoVo and DLD-1 lysates). The “pT1989-ATR level by Western blot” value in the assay with phospho-ATR (pT1989) (4 hours, parental DLD-1 cells) is reported as “increase”. The “signal intensity for pT1989 staining compared to untreated cells” value in assay [2] (FFPE HT29, DLD-1 cells) is listed as “higher signal intensity”; in assay [2] (HT29 cells, 150 nM, 4 hrs or 24 hrs), “higher signal intensity”.
